The text below walks through data of US20190365927A1, “COMPOSITION FOR PHOTODYNAMIC THERAPY USING GENE EXPRESSING FLUORESCENT PROTEIN AND PHOTOSENSITIZER, AND PHOTODYNAMIC THERAPY METHOD USING SAME” (priority 2017, published 2019).

The test system of data set [1] is GFP+ 4T1 cells, RFP+ 4T1 cells and control 4T1 cells. The data set is described as follows: In vitro PDT of GFP+ and RFP+ cells with photosensitizer and red, blue or yellow light, MTT analysis. The format is cell-based, mouse. Conditions: FIG. 14; for cytotoxicity in control, RFP+ and GFP+ cells: 1 μM photosensitizer. On the procedure:
The cytotoxicity of RFP+ or GFP+ cells was measured by MTT analysis in the presence of Ce6 (Chlorine (e6)), rose bengal or tin ethyl etiopurpurin as photosensitizer after red light, blue light or yellow light irradiation. The specific experimental procedure is as follows.
Specifically, Ce6 (santacruz, sc-263067), rose bengal (Sigma Aldrich, 330000-5G) or tin ethyl etiopurpurin as a photosensitizer was diluted with RPMI-1640 medium containing 10% FBS. Thus, 1 μM concentration of Ce6 (Chlorine (e6)), rose bengal or tin ethyl etiopurpurin was prepared. Further, GFP+ 4T1 cells selected in the 1-4 and RFP+ 4T1 cells selected in the 1-3 were pre-cultured at a density of 2×10^4 cells/well in 96-well, black, and clear bottom plates. The pre-cultured cells were then incubated with Ce6, rose bengal or tin ethyl etiopurpurin for 4 h. 4T1 cells without RFP or GFP introduced thereto were used as controls. After 4 hours, the cells were washed three times with PBS buffer. Then, red laser light (650 nm; radiation dose rate=2 J/cm^2) or blue laser light (488 nm; radiation dose rate=2 J/cm^2) or yellow laser light (570 nm, radiation dose rate=2 J/cm^2) was irradiated thereto for 5 seconds. After the irradiation, the fresh culture medium was added to the wells. Then, the cells were cultured again for 24 hours. MTT analysis was then performed.

The subject of data set [2] is GFP+ 4T1 cells and RFP+ 4T1 cells. Put plainly: Experiment using artificial skin, MTT assay. The format is cell-based, mouse. The note with it: presence as well as absence of artificial skin (1 mm), 1 μM, yellow laser light, FIG. 17. On the procedure:
Actual skin condition was applied. photosensitizer was applied to GFP+ cell and RFP+ cell which in turn was irradiated with light. Then, cell death was measured by MTT assay. The specific experimental procedure is as follows.
Specifically, rose bengal and tin ethyl etiopurpurin at 1 μM concentration were produced in the same method as described in the 2-4. Then, the tin ethyl etiopurpurin was applied to RFP+ 4T1 cells selected from the 1-3. The rose bengal was applied to GFP+ 4T1 cells selected from 1-4. Then, the cells were cultured for 4 hours and washed three times with PBS buffer. Next, as shown in the schematic diagram of FIG. 16, an artificial skin tissue (AST, thickness 1 mm) (Geistlich Mucograft, Geistlich Pharma AG) was placed between the light source and the cell. Thus, the actual skin condition was established. Then, blue laser light (473 nm; radiation dose rate=2 J/cm^2) was applied to GFP+ cells for 5 seconds. Yellow laser light (580 nm; radiation dose rate=2 J/cm^2) were irradiated to RFP+ cells for 5 seconds. In 2 hours of the irradiation, the cells were washed twice with PBS buffer. MTT analysis was carried out in the same method as described in the Experimental Example 2-2. […]

The subject of data set [3] is RFP+ and RFP− 4T1 cells. Put plainly: In vitro PDT with varying tin ethyl etiopurpurin concentration, MTT analysis. Conditions: 0, 0.5, 1 and 2 μM, yellow laser light 5 seconds, FIG. 13. The data set is classed as cell-based, mouse. Here is the method:
After irradiation with yellow light, the photo inducing death of RFP+ and RFP− cells was measured by MTT analysis under the conditions of varying tin ethyl etiopurpurin concentrations. The specific experimental procedure is as follows.
Specifically, tin ethyl etiopurpurin was produced at 0, 0.5, 1 and 2 μM concentrations in the same method as described above. Then, the cells were cultured for 4 hours with RFP− or RFP+ 4T1 cells selected from the 1-3. MTT analysis was performed after irradiation of yellow laser light (570 nm; radiation dose rate=2 J/cm^2) thereto for 5 seconds.

Data set [4] concerns RFP+ and RFP− 4T1 cells. Put plainly: In vitro PDT with tin ethyl etiopurpurin and yellow light over irradiation time, LDH and MTT analysis. The data set is classed as cell-based, mouse. The note with it: 1 μM, yellow laser light, in 2 seconds after light irradiation, FIG. 11, 12. On the procedure: The yellow light was irradiated over time, and then photo inducing death of RFP+ and RFP− cells was measured by MTT analysis under the presence of tin ethyl etiopurpurin. The specific experimental procedure is as follows.
Specifically, tin ethyl etiopurpurin (Miravant Medical Technology Inc, USA) was diluted with RPMI-1640 medium containing 10% FBS to produce 1 μM concentration of tin ethyl etiopurpurin. Further, the RFP− or RFP+ 4T1 cells selected from the above 1-3 were pre-incubated in a 24-well plate at a density of 5×10^4 cells per well. The pre-cultured cells were then incubated with tin ethyl etiopurpurin for 4 h. After 4 hours, the cells were washed three times with PBS buffer. Then, the yellow laser light (570 nm; radiation dose rate=2 J/cm^2) was irradiated thereto for 0, 5 and 10 seconds. LDH analysis was then performed using the LDH Cytotoxicity Assay kit (Cayman Chemical Company, USA) according to the manufacturer's procedure. […] The absorbance was measured at 490 nm using a plate reader.
Further, the RFP− or RFP+ 4T1 cells selected from the 1-3 using the same method as described above were subjected to the yellow laser light (570 nm; radiation dose rate=2J/cm^2) for 0, 1, 2, 5, 7, or 10 secs. […] The absorbance of the reaction solution was measured at 570 nm. Cell viability was calculated by the following equation: […]

The test system of data set [5] is GFP+ A549, RFP+ A549 and YFP+ A549 cells. Put plainly: In vitro PDT of GFP+, RFP+ and YFP+ cells with photosensitizer, MTT analysis. The data set is classed as cell-based, human. The note with it: 1 μM, yellow laser light (570 nm), FIG. 21, 22. On the procedure: Photo inducing death of GFP+, RFP+, and YFP+ cells via the photosensitizer was measured by MTT analysis. The specific experimental procedure is as follows.
To investigate photo inducing death of GFP+ cells, RFP+ cells, and YFP+ cells via the photosensitizer, rose bengal, hematoporphyrin (Sigma-aldrich #5518) or 5-ALA (5-Aminolevulinic acid hydrochloric, Sigma-aldrich # A3785) was diluted with RPMI medium containing 10% FBS. 1 μM concentration of rose bengal, hematoporphyrin or 5-ALA was prepared. Further, GFP+ A549 cells, RFP+ A549 cells and YFP+ A549 cells selected from the 1-4 were pre-incubated at a density of 5×10^3 cells per well on 96-well, black, and clear bottom plates. A549 cells with pcDNA 3.1 vector injected thereto were cultured as control. Then, each of the photosensitizers as produced was applied or not applied to the preincubated cells in the preincubated cells which in turn were cultured for 4 hours. After 4 hours, the cells were washed three times with PBS buffer. Irradiation or non-irradiation of blue laser light (488 nm; radiation dose rate=2 J/cm^2) or yellow laser light (570 nm; radiation dose rate=2 J/cm^2) thereto was carried out for 5 seconds. After irradiation or non-irradiation, a fresh culture medium was added to the wells. The cells were cultured again for 24 hours. MTT analysis was then performed.

A further data set relates to eGFP+ and eGFP− cells. The data set is described as follows: Cytotoxicity with Ce6 and 650-nm red laser light, eGFP+ versus eGFP− cells. The format is cell-based. The note with it: FIG. 5.

For the compound `CCOC(=O)C1=Cc2c3nc(cc4nc(cc5[n-]c(cc6[n-]c2c(C)c6CC)c(C)c5CC)C(C)=C4CC)[C@@H](C)[C@]13CC.[Cl-].[Cl-].[Sn]` (racemic) [tin ethyl etiopurpurin], the “cytotoxicity in control, RFP+ and GFP+ cells” value in data set [1] (yellow laser light) was “cytotoxicity was seen only in RFP+ cells”. The “degree of cytotoxicity in RFP+ cells versus GFP+ cells treated with rose bengal and blue laser light” value in data set [1] (1 μM, yellow laser light) was “the degree of cytotoxicity was higher”. The “cell death level of RFP+ cells versus GFP+ cells treated with rose bengal and blue laser light” value in data set [2] is “the cell death level was higher”. Also, the “RFP+ cell death by treatment concentration” value in the data set with RFP+ and RFP− 4T1 cells [3] is on record as “increased remarkably”. Besides, the “RFP+ cell death compared to RFP− cell, by irradiation duration” value in the data set with RFP+ and RFP− 4T1 cells [4] was “RFP+ cell death increased considerably”.

Consider `Cl.NCC(=O)CCC(=O)O` [5-ALA, 5-Aminolevulinic acid hydrochloride], for which, in data set [5], the “cell death effect in YFP+ cell and RFP+ cell” value is on record as “significant cell death effect”; the “cell death effect of RFP+ cell” value was “remarkable cell death effect”.

Consider chlorine e6 [Ce6], for which the “cytotoxicity in control, RFP+ and GFP+ cells” value in data set [1] (red laser light (650 nm)) was “control, RFP+, and GFP+ cells showed cytotoxicity”. Further, the “cytotoxicity for eGFP+ versus eGFP− cells” value in the data set with eGFP+ and eGFP− cells is given as “not different from each other”.
